Test results as given in US20140323500A1, “NADPH OXIDASE 4 INHIBITORS AND USE THEREOF” (GENKYOTEX SA, priority 2011, published 2014).
Read-outs that look alike come from different tables or passages of the source. Blank lines part the entries; values can stand above or below the compound they belong to.

Experiments:
[1] = target: T1, human Nox4 (Homo sapiens, UniProt Q9NPH5); test: ROS production by membranes expressing human Nox4, cell-free Amplex Red assay; format: biochemical; conditions: for Ki: read-out: Ki hNox4
T1 construct: expressed in transfected cells; host or cells: T-REx-293 (hNOX4 T-REx-293), tetracycline-induced; membrane fraction
T1 sequence (Q9NPH5 1-578): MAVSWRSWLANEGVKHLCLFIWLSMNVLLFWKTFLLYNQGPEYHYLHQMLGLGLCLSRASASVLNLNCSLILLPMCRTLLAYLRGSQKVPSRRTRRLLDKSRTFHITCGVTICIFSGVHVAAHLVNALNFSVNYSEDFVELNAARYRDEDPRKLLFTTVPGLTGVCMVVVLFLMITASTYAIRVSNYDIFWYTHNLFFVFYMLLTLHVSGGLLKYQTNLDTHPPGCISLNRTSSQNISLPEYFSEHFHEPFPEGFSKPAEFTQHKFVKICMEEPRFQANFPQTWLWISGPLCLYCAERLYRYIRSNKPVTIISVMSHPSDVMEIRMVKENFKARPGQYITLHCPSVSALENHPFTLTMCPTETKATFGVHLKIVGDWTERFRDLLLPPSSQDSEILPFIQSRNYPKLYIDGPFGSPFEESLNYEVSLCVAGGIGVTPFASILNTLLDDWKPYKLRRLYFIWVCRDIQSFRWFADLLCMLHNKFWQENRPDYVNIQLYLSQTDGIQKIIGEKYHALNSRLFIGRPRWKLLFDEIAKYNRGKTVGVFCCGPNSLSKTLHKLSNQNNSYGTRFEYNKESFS
T1 sequence (P13498 2-195 partner limits assumed): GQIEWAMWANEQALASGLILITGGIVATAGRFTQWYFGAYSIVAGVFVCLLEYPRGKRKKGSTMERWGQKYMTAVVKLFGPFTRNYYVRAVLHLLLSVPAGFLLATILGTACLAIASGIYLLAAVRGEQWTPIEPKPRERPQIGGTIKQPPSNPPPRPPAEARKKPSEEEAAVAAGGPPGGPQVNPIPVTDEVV
Method in brief: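 Membranes from tetracycline-induced (1 μg/ml, 24 h) T-REx cells overexpressing human Nox4, incubated in PBS with Amplex Red, HRP and co-factors; NADPH starts ROS production. Compounds 1 nM-100 μM, 20 min at 37° C.; fluorescence (ex 544/em 590 nm) over 10 min; Ki via Cheng-Prusoff, ≥3 experiments in triplicate.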

[2] = test system: murine M-CSF-primed BMNC; test: RANKL-induced increase in cytosolic Ca2+ by Fura2 fluorescence; format: cell-based, mice; conditions: 20 μmol/L co-applied with RANKL during stimulation (30 hours); wildtype cells; FIG. 4B
Source text: A: comparison of cells from wildtype and Nox4−/− mice; B: Effect of a Nox4 inhibitor (Compound (1) or solvent on calcium concentrations in wildtype cells; n≧3; *p<0.05.
Epiphyseal ends of the femora and tibiae were cut off and the bone marrow was flushed out with DMEM containing 10% FCS. Bone marrow stromal cells were collected and plated at a density of 2×10^6 cells/cm^2 in α-MEM containing 10% FCS and 1% penicillin/streptomycin. Following attachment, medium was replaced by basal medium supplemented with 25 ng/ml M-CSF (R&D Systems) for 2 days. Thereafter, cells were cultured for additional 6 days in differentiation medium containing 25 ng/ml M-CSF and 50 ng/ml RANKL (R&D Systems). TRAP staining was performed using the leukocyte acid phosphatase kit (Sigma) following the manufactures instructions according to Mukherjee et al., 2008, supra.
The role of Nox4 for the RANKL-induced increase in cytosolic Ca^2+ was investigated by FURA2 fluorescence as described below. […]
Cells were grown on 96 well plates and differentiated with or without RANKL as described above. […] After another washing step intracellular free Fura-2 and Ca^2+-bound Fura-2 was measured at the wavelength 340 and 380 nm by the ELISA Reader EnVision (PerkinElmer) in 100 μl HEPES Tyrode. […] Eventually the intracellular Ca^2+ was calculated as described by Grynkiewicz et al., 1985, J. Biol. Chem., 260(6):3440-3450.

[3] = test system: xanthine/xanthine oxidase; test: Antioxidant activity in an assay of Example 1 (ROS production by xanthine/xanthine oxidase, Amplex Red); format: biochemical; conditions: as measured in an assay of Example 1
xanthine/xanthine oxidase, sequence (P47989 whole entry): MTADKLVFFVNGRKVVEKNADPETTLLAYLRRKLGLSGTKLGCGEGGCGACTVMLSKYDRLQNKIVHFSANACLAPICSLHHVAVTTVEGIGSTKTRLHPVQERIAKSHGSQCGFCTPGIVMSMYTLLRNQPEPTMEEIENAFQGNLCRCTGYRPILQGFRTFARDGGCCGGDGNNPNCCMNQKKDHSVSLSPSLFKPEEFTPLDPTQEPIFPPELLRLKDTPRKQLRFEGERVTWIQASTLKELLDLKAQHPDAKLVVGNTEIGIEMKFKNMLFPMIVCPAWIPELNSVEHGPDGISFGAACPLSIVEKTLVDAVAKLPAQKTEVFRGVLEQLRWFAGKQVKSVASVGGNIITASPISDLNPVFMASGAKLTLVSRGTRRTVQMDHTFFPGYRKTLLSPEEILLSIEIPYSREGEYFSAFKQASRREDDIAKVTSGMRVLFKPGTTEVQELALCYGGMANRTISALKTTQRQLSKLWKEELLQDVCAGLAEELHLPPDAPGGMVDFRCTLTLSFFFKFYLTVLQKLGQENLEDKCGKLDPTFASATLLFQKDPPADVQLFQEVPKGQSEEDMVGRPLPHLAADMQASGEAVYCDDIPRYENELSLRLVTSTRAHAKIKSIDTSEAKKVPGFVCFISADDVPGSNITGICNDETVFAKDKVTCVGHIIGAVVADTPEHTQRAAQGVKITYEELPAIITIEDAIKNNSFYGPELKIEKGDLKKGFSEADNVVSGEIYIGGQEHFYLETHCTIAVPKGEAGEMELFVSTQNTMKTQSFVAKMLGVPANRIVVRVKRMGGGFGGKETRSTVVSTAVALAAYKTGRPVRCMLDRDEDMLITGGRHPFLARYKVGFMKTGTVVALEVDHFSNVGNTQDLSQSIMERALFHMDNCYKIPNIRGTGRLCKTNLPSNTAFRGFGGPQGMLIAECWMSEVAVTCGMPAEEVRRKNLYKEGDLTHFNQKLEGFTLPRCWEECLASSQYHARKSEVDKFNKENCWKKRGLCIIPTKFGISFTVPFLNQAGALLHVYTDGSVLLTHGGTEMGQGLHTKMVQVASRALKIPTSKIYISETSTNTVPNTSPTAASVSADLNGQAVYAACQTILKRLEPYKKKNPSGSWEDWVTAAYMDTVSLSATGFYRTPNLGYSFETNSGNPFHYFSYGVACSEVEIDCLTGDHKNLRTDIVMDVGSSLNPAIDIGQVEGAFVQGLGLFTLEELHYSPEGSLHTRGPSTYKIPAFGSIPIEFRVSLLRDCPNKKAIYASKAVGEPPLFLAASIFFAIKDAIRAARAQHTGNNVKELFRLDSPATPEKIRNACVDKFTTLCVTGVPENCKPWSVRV
Experimental: Reactive Oxygen Species (ROS) production by membranes expressing either human Nox1, or human Nox2 or human Nox4 or human Nox5 or by xanthine/xanthine oxidase were measured using the Amplex Red (AR) method following a slightly modified version of the manufacturer's instruction manual (Invitrogen). Briefly, membranes or xanthine were incubated in PBS with Amplex Red, Horse Radish Peroxidase (HRP) and appropriated co-factors. ROS production was induced by addition of NADPH to NOX-expressing membrane or by addition of xanthine to xanthine oxidase. Non-specific signal was measured in the absence of membranes or in the absence of xanthine.
Antagonist activity of compounds was measured in the presence of increasing concentrations ranging from 1 nM to 100 μM. After an incubation of 20 min in a plate shaker and incubator (Titramax 1000, VWR) at 37° C. with weak agitation (300 rpm), ROS levels were measured for 10 min in a BMG Fluostar microplate reader with excitation and emission wavelengths of 544 nm and 590 nm respectively.

[4] = test system: female mice subjected to ovariectomy; test: Ovariectomy-induced osteoporosis (bone loss) in mice; format: in vivo; conditions: distal femur 6 weeks after ovariectomy, compound 1 at 20 and 60 mg/kg, pamidronat 10 mg/kg once a week, microCT
Experimental: BMD of the left femur was measured by peripheral quantitative computed tomography (QCT) using an XCT Research QCT machine (Stratec Medizintechnik, Pforzheim, Germany). One slice (0.2 mm thick) in the mid-diaphysis of the femur and 3 slices in the distal femoral metaphysis located 1.5, 2, and 2.5 mm proximal to the articular surface of the knee joint were measured. BMD values of the distal femoral metaphysic were calculated as the mean of 3 slices. A voxel size of 0.070 mm and a threshold of 710 mg/cm^3 were used for calculation of BMD as described in Hofbauer et al., 2009, Arthritis Rheum., 60(5):1427-1437.
The control group received daily gavages by the solvent.
To study the latter effect, female mice were subjected to ovariectomy to induce osteoporosis and the effect of pharmacological inhibition of Nox4 with a Nox4 inhibitor as well as acute genetic knockout of the protein was studied. For this, mice were subjected to ovariectomy 8 weeks after birth and treatment at 60 mg/kg with a Nox4 inhibitor of the invention was started 2 days after the operation and continued throughout the study (6 weeks).
3, Hamburg was used which completely blocks osteoclast activity. […] For this, bones were scanned with a skyscan 1176 and bone density was analysed with the integrated software using two phantoms with 0.25 g/cm^3 and 0.75 g/cm^3 as reference. A 2 mm portion of the femur from the tibia plateau was analysed for total and trabecular bone density by the software provided by the manufacturer of the machine. […] For this method, the femurs were loaded to failure by 3-point bending tests using a Zwick Z020/TN2A materials testing machine (Zwick, Ulm, Germany) with a 1 kN force detector, and a force resolution of 0.01N. The distance between the lower supports for the bending tests was 5 mm. Crosshead speed during testing was 0.2 mm/minute for all measurements. From the force-displacement data, ultimate force (Fmax; in N) was calculated.

[5] = target: T2, human Nox2 (Homo sapiens, UniProt P04839); test: ROS production by membranes expressing human Nox2, cell-free Amplex Red assay; format: biochemical; conditions: read-out: Ki hNox2
T2 construct: host or cells: T-REx-CHO (hNOX2 T-REx-CHO), tetracycline-induced; membrane fraction
T2 sequence (P04839 2-570 limits assumed): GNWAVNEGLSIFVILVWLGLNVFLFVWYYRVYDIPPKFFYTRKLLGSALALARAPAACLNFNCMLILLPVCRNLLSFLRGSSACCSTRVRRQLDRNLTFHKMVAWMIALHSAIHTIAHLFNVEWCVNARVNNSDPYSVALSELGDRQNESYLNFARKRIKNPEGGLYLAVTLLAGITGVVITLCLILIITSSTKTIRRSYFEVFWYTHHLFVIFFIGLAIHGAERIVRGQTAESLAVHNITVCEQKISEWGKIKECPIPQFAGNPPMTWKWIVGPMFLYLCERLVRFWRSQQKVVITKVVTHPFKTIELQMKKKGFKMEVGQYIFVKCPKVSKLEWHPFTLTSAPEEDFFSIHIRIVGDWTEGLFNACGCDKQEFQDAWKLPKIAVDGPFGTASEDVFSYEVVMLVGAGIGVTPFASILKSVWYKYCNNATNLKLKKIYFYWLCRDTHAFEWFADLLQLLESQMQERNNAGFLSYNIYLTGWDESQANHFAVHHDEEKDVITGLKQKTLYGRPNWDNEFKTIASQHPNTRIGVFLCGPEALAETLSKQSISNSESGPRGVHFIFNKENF
T2 sequence (P13498 2-195 partner limits assumed): T1 sequence (P13498 2-195 partner limits assumed)
Method in brief: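 Membranes from tetracycline-induced (1 μg/ml, 24 h) T-REx-CHO cells stably expressing hNox2 with p22 and cofactors, incubated in PBS with Amplex Red, HRP and cofactors; NADPH starts ROS production. Compounds 1 nM–100 μM, 20 min at 37 °C, then fluorescence (544/590 nm) read for 10 min; Ki by Cheng-Prusoff.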

[6] = cell-free membranes, Amplex Red, Cheng-Prusoff, average of at least three experiments in triplicate

IC50 for Nox4 relative to Nox2 ([1]; Nox4 versus Nox2, assay of Example 1): approximately 10 fold | antioxidant activity [3]: no antioxidant activity
SMILES: CN(C)c1cccc(-c2c3c(=O)n(-c4ccccc4Cl)[nH]c3cc(=O)n2C)c1 [2-(2-chlorophenyl)-4-[3-(dimethylamino)phenyl]-5-methyl-1H-pyrazolo[4,3-c]pyridine-3,6(2H,5H)-dione]
RANKL induced increase in cytosolic Ca2+ [2]: prevented the RANKL induced increase in cytosolic Ca^2+

SMILES: NCCC(O)(P(=O)(O)O)P(=O)(O)O [pamidronat, reference compound]
absolute bone density (total) ([4]; FIG. 6A): increased absolute bone density | absolute trabecular bone density ([4]; FIG. 6B): increased | relative inhibition of ovarectomy-induced total bone loss ([4]; FIG. 6C): ~50% | relative inhibition of trabecular bone loss ([4]; FIG. 6D): approximately 60%

Ki [5, 6]: 735 nM | Ki [1, 6]: 57 nM
SMILES: COc1ccccc1-n1[nH]c2cc(=O)n(Cc3cnccn3)c(-c3ccc(Cl)cc3)c2c1=O [(3), 4-(4-chlorophenyl)-2-(2-methoxyphenyl)-5-(pyrazin-2-ylmethyl)-1H-pyrazolo[4,3-c]pyridine-3,6(2H,5H)-dione]

Ki [5, 6]: 700 nM | Ki [1, 6]: 74 nM
SMILES: COc1ccc(Cn2c(C)c3c(=O)n(-c4ccccc4Cl)[nH]c3cc2=O)cn1 [(10), 2-(2-chlorophenyl)-5-[(6-methoxypyridin-3-yl)methyl]-4-methyl-1H-pyrazolo[4,3-c]pyridine-3,6(2H,5H)-dione]

Ki ([5]; Simvastatin comparison): > 162000 nM | Ki ([1]; Simvastatin comparison): > 133000 nM
SMILES: CCC(C)(C)C(=O)O[C@H]1C[C@@H](C)C=C2C=C[C@H](C)[C@H](CC[C@@H]3C[C@@H](O)CC(=O)O3)[C@H]21 [Simvastatin, reference compound]

Ki [5, 6]: 1060 nM | Ki [1, 6]: 111 nM
SMILES: Cc1c2c(=O)n(-c3ccccc3Cl)[nH]c2cc(=O)n1Cc1ccn(C)n1 [(30), 2-(2-chlorophenyl)-4-methyl-5-[(1-methyl-1H-pyrazol-3-yl)methyl]-1H-pyrazolo[4,3-c]pyridine-3,6(2H,5H)-dione]
